This is an account of results in article PMC12384225, “Piezo1 Channel Activators Yoda1 and Yoda2 in the Context of Red Blood Cells” (Biomolecules, 2025).

For one assay, the target named is T1, Piezo1 channel (Homo sapiens, UniProt Q92508).
T1 construct: endogenous in cells; host or cells: human red blood cells (RBCs) from donor blood
Briefly: Automated whole-cell patch clamp (SyncroPatch 384) of Piezo1-mediated currents in RBCs. The class given is cell-based. Particulars: for responding cells out of total valid cells / responding cells out of total valid cells (any concentration) / concentration at which the response plateaus: +80 mV; for responding cells out of total valid cells (any concentration): current > baseline + 3σ at any concentration, N = 3; for EC50: human RBCs, responders only, current at +80 mV normalised to baseline, cumulative concentrations, Hill fit, room temperature; for concentration at which the response plateaus: normalised concentration-response curves. As to the method:
Whole-cell patch clamp recordings were performed using the SyncroPatch 384 (Nanion Technologies, Munich, Germany) as previously described. Experiments were conducted at room temperature using NPC-384 single-hole microchips with resistances ranging from 6 to 10 MΩ. Recording solutions contained (in mM) 110 KF, 10 KCl, 10 NaCl, 10 EGTA, and 10 HEPES, pH 7.2 (KOH) (internal); and 140 NaCl, 4 KCl, 2 CaCl2, 1 MgCl2, 5 D-glucose monohydrate, and 10 HEPES, pH 7.4 (NaOH) (external). Data acquisition was conducted using PatchControl384 v3.2.2 (Nanion Technologies, Munich, Germany), sampled at 10 kHz.
Piezo1-mediated currents were elicited using a voltage ramp protocol ranging from −100 mV to +80 mV over 450 ms, applied every 10 s, with a holding potential set at −30 mV. After establishing a stable baseline current in the external solution, cells were exposed to increasing concentrations of either Yoda1 or Yoda2 (Tocris Bioscience, Bristol, UK) in a cumulative manner: 41 nM, 144 nM, 442 nM, 1.33 μM, 4 μM, and 8 μM. To block channel activity, 30 μM GdCl3 (Sigma-Aldrich, Merck KGaA, Taufkirchen, Germany, a non-selective ion channel inhibitor, was subsequently applied.
RBCs were classified as responders if the mean current amplitude in the presence of the compound exceeded the mean current at baseline conditions by more than three times the standard deviation of the baseline (3σ). For EC50 determination, current amplitudes at each concentration were normalised to the baseline current, and dose–response curves were fitted using the Hill equation.

For assay [1], the system named is free Ca^2+ in healthy red blood cells (RBCs). Description: Intracellular Ca2+ by Fluo-4 flow cytometry in RBCs. It is filed as cell-based, human. Particulars: for EC50: maximum average Fluo-4 intensity of all RBCs during recording, Hill fit, flow cytometry, read-out: EC50 (Ca^2+ Measurements). How it is done: Experiments for the intracellular Ca^2+ detection of RBCs were performed in Tyrode solution containing (in mM) 130 NaCl, 5 KCl, 5 glucose, 10 HEPES, 1 MgCl2, and 1.5 CaCl2. The pH was adjusted to 7.40 with NaOH. All salts were of analytical grade. The cells were loaded with Fluo-4 AM (Molecular Probes, Eugene, OR, USA) at a concentration of 5 μM for 1 hour at 37 °C. Then, the cells were washed three times with Tyrode solution.
Flow cytometry measurements were performed on LSRFortessa (Becton Dickinson, Franklin Lakes, NJ, USA). Washed RBCs from 50 μL of blood were loaded with Fluo-4 as previously described and washed again. For flow cytometry analysis, 10 μL of cell suspension was added to 700 μL of designed buffer and transferred to 5 mL round-bottom polystyrene test tubes (Corning Inc., Corning, NY, USA). For each sample, data recording started 1 minute after the cells were in the designed buffer for 10 minutes. The results were assessed using FlowJo (Becton Dickinson, Franklin Lakes, NJ, USA).
Background: Flow cytometry measures light scatter and fluorescence of single cells or particles in a stream.

The test system of assay [2] is membrane potential of RBCs (Gárdos channel activity). Briefly: Membrane potential measurement (MBE method), hyperpolarisation by Gárdos channel activity. It is filed as cell-based, human. Particulars: magnitude of membrane hyperpolarisation ΔVm, Hill fit. As to the method:
The membrane potential of RBCs was measured using a method originally described by Macey et al., subsequently refined by Poul Bennekou, e.g., [27], and later optimised by the group of Stéphane Egée, e.g., [28]. As such, the method is referred to as the MBE method after the three scientists who most contributed to it. For each experiment, a 2 mL microcentrifuge tube was prepared with 1 mL of Ringer solution containing (in mM) 153 NaCl, 2 KCl, and 4 CaCl2. All reagents were of analytical grade and dissolved in Milli-Q water. Protonophore carbonyl cyanide m-chlorophenyl hydrazone (CCCP) was added at a final concentration of 26 µM to increase the hydrogen permeability of membranes. The tube was placed in a 36 °C water bath, and a magnetic stir bar was added to ensure continuous mixing. A calibrated pH electrode (InLab Expert Pro pH electrode, Mettler-Toledo GmbH, Greifensee, Switzerland) was immersed in the solution to monitor pH changes in real time, with data acquisition and recording performed via software on a connected computer. […] The system was monitored for an additional 5 minutes to observe the effects of the compound on the RBCs. […]
The membrane potential (Vm) was calculated from the recorded pH data using the following equation:Vm [mV] = −61.5 × (pHval − pHlys), where pHval is the pH value measured at a specific time point, and pHlys is the final pH value obtained after cell lysis.

In assay [3] the test system is free Ca^2+ in healthy red blood cells (RBCs). More on the design: method as in PMID 29259557, PMID 33208899. The settings on record: cited from earlier work.
Assay [4] has as its system membrane potential of RBCs (Gárdos channel activity). More on the design: method as in PMID 37492641. The settings on record: RBCs pretreated with the inhibitor; cited from earlier work.

T1 sequence (Q92508 whole entry): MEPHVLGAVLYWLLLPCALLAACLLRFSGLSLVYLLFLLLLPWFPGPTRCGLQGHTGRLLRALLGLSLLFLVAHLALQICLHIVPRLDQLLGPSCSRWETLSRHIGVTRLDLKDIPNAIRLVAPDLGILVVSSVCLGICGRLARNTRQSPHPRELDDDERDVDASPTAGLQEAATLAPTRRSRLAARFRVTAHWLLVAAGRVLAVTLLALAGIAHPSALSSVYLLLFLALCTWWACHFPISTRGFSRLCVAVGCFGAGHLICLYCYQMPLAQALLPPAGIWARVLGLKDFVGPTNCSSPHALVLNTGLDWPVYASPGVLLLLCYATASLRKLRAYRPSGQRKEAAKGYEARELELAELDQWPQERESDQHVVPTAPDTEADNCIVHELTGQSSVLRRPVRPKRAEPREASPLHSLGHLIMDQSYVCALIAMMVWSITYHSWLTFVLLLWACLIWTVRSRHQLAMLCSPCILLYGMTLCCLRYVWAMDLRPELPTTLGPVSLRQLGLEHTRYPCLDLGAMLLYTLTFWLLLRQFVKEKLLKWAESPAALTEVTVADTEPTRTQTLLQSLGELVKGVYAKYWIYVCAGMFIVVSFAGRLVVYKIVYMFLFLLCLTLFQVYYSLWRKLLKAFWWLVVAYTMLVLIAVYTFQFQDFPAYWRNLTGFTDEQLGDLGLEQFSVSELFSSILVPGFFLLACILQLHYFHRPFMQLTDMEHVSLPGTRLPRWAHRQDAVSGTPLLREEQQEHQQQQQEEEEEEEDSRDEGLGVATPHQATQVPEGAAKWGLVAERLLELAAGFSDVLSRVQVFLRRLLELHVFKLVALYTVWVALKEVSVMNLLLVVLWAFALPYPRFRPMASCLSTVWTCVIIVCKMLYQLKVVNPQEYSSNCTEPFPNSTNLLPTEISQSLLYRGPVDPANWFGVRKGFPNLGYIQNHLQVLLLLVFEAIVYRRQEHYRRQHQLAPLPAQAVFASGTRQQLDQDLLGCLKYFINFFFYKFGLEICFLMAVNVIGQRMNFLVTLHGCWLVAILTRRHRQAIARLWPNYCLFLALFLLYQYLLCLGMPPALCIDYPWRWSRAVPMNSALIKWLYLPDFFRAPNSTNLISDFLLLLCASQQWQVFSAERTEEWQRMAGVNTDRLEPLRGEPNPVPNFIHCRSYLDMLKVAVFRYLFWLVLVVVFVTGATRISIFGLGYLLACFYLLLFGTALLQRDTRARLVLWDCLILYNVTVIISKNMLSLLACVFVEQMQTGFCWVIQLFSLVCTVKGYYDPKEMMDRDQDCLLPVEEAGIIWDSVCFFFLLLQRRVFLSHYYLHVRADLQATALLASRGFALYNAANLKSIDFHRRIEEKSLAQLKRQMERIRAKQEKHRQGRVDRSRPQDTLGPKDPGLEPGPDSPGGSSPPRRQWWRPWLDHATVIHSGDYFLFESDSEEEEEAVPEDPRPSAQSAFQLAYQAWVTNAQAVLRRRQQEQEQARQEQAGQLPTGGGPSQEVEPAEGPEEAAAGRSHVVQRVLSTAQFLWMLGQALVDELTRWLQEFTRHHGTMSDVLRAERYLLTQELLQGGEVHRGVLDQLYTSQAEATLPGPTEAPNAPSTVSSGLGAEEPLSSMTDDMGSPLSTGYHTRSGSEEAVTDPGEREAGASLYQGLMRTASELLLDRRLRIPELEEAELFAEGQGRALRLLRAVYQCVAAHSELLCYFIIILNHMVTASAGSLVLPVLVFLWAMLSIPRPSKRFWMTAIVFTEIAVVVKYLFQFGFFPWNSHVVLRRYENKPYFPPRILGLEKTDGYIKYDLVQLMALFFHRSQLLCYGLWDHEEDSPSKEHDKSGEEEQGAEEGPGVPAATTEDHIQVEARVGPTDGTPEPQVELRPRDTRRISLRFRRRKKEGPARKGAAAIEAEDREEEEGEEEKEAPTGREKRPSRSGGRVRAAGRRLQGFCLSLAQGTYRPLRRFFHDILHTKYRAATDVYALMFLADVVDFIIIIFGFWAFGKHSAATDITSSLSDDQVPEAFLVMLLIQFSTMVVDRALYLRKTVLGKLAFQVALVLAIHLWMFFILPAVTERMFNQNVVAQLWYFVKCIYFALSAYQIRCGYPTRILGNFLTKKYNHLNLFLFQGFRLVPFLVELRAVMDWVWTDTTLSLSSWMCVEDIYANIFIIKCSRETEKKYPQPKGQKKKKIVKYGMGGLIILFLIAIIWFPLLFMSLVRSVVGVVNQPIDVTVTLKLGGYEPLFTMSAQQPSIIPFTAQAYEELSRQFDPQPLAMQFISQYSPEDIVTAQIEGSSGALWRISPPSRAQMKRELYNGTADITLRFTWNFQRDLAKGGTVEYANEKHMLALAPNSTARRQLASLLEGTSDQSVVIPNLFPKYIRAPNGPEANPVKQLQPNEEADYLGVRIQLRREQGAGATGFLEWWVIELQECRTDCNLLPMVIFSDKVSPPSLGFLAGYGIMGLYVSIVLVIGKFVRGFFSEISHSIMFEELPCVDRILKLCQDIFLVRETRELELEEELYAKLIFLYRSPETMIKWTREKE

Consider `[Cl][Gd]([Cl])[Cl]` [GdCl3], for which, on Piezo1 channel (30 μM, applied after cumulative Yoda1 or Yoda2), the “block of Piezo1 channel activity” value was “block Piezo1 channel activity completely”.
Turning to `Clc1cccc(Cl)c1CSc1nnc(-c2cnccn2)s1` [Yoda1], the “responding cells out of total valid cells” value is on record as 2/172 on Piezo1 channel (41 nM); 9/172 on Piezo1 channel (144 nM); 16/172 on Piezo1 channel (442 nM); 26/172 at Piezo1 channel (1330 nM); 30/172 on Piezo1 channel (4000 nM); 35/172 on Piezo1 channel (8000 nM). Further, the “responding cells out of total valid cells (any concentration)” value on Piezo1 channel was 35/172. Moreover, the EC50 (commonly the concentration that produces a half-maximal response) came to 1390 nM at Piezo1 channel, 1180 nM in assay [1] and 305 nM in assay [2]. Besides, the “concentration at which the response plateaus” value at Piezo1 channel is reported as “did not plateau”. The “Fluo-4 (Ca^2+) response of RBCs” value in assay [1] (40 nM) is reported as “no obvious response”.
Take `O=C(O)c1ccc(-c2nnc(SCc3c(Cl)cccc3Cl)s2)cc1` [Yoda2]: the “responding cells out of total valid cells” value on Piezo1 channel (41 nM) is listed as 3/171; on Piezo1 channel (144 nM), 12/171; on Piezo1 channel (442 nM), 24/171; on Piezo1 channel (1330 nM) it was 30/171; at Piezo1 channel (4000 nM) it was 30/171; at Piezo1 channel (8000 nM), 31/171. The “responding cells out of total valid cells (any concentration)” value on Piezo1 channel is listed as 35/171. Moreover, the figures for the concentration giving a half-maximal response (EC50) (at Piezo1 channel; in assay [1]; in assay [2]) were 305 nM, 986 nM and 465 nM, respectively. Further, on Piezo1 channel, the “concentration at which the response plateaus” value is “around 4 μM”. For the same compound, the “Fluo-4 (Ca^2+) response of RBCs” value in assay [1] (80 nM) is on record as “no obvious response”.
Take GsMTx4: the “inhibition of increased Ca^2+ induced by Yoda1 or mechanical stress” value in assay [3] is “significantly inhibited”. Further, in assay [4], the inhibition of hyperpolarisation result was “largely inhibited”.
